Results on one compound are retold here after patent US20200129499A1, “COMBINATION OF TASQUINIMOD OR A PHARMACEUTICALLY ACCEPTABLE SALT THEREOF AND A PD-1 AND/OR PD-L1 INHIBITOR, FOR USE AS A MEDICAMENT” (ACTIVE BIOTECH AB, priority 2015, published 2020).

The subject of one assay is CD8+ T cells. Put plainly: Ex vivo T cell proliferation assay with tumor-derived CD11b+ cells. In kind it is cell-based, mouse. The following applies: CD11b+ from treated established tumors co-cultured 1:1 with T cells, 72 h; FIGS. 8A and B. The text has this: FIG. 7: Combination of tasquinimod with Anti-PD-L1 increases cytotoxic T cell activity. (A) Quantitative data of the percentage of tumor-infiltrating CD8+ cells on day 15 after treatment (n=6). (B) Left panel: Representative images showing immunostaining for granzyme B (brown staining) in tumors from control or treated groups. Original magnification: X200, inset: tumor overview. Scale bar: 5θ μm. Right panel: Quantification of granzyme B positive cells on tumor sections expressed as a percentage of total cells using an antibody against granzyme B (Kruskal-Wallis test; *, P=0.0326). (C) The concentration levels (pg/ml) of the following cytokines: IL-1β, IL-7, IL-1 2(p70) and IL-15 in tumor lysate from each group were quantified using Luminex Technology (n=5). (D) Splenocytes (n=5) from each group were stimulated with PMA/ionomycin in the presence of Brefeldin A. IL-2, TNF-a and IFN-γ production was examined by intracellular staining. […] Asterisks denote statistical significance using one-way ANOVA (*, P<0.05; **, P<0.005). […] P values were calculated based on Kruskal-Wallis test between the different groups (*, P<0.05; **, P<0.005). […] (A) Representative histograms obtained by FACS analysis showing the fluorescence intensity of CFSE-T cells gated on CD8+. […] (C) IFN-γ secretion in the supernatant of the co-culture is measured 72 hours following incubation at 37° C. using Luminex Technology. […]

Assay [1] deals with human prostate, breast, bladder and colon tumor xenografts. The following applies: pre-clinical models, Isaacs et al. 2013; cited from earlier work.

`COc1cccc2c1c(O)c(C(=O)N(C)c1ccc(C(F)(F)F)cc1)c(=O)n2C` [tasquinimod, 4-hydroxy-5-methoxy-N,1-dimethyl-2-oxo-N-[4-(trifluoromethyl)phenyl]-1,2-dihydroquinoline-3-carboxamide]: the “proliferation of stimulated CD8+ T cells ex vivo” value with CD8+ T cells was “limited ability”. The “efficacy as monotherapeutic agent against tumor xenografts” value in assay [1] is “effective as a monotherapeutic agent”.
